Columns and labels:
Format in all cases: in vivo
[1] = test system: Peroxisome proliferator activated receptor alpha (PPAR α); assay: Real-time PCR gene expression in peripheral tissues: PPAR α; conditions: proximal intestine; C57bl6j mice, high fat diet, 100 mg/kg/body weight in diet, 5 weeks
Protocol: (§1) The expression of 45 genes was measured by real-time PCR in peripheral tissues to identify genes that were differentially expressed in response to oral administration of oleoylethanolamide (OEA) or a non-hydrolysable OEA analog (KDS 5104), which affect satiety, lipid metabolism, fat utilization, food intake, and body fat mass.
(§2) Animals, diet, and experimental design. Adult male C57bl6j mice purchased at 8 weeks of age were individually housed and maintained ad libitum on high fat diet and water for 2 weeks. Seven mice were randomly allocated in 3 groups and fed with a high fat diet (lipids represented 50% of daily energy) for 2 weeks. […]
(§3) RNA extraction and gene expression. […] The RNA concentration was determined on nanodrop from the absorbance at 260 nm. […] Real-time quantitative PCR (RT-qPCR) were performed on cDNA obtained as described above using a high through put system (Biomek 3000, Beckman & Coulter, Fullerton, USA) and a Lightcycler 480 (Roche/Hitachi, Basel, Switzerland) with SYBR Green Master mix+kit (Eurogentec, Philadelphia, USA). […] Values were expressed as ratio of RNA levels relative to control mice (diets with 0 mg of OEA/kg/body weight) using ΔΔ(Ct) (Livak K J & Schmittgen T D, 2001, Methods 25:402-8). Gene expression of the following genes was measured (abbreviation and GenBank Accession shown in parentheses). […]

[2] = test system: Fasting induced adipocyte factor (Fiaf); assay: Real-time PCR gene expression in peripheral tissues: Fiaf; conditions: C57bl6j mice, high fat diet, 100 mg/kg/body weight in diet, 5 weeks
Protocol: as §1
(§4) Animals, diet, and experimental design. Adult male C57bl6j mice purchased at 8 weeks of age were individually housed and maintained ad libitum on high fat diet and water for 2 weeks. Seven mice were randomly allocated in 3 groups and fed with a high fat diet (lipids represented 50% of daily energy) for 2 weeks. For one kilogram, the composition of the high fat diet was: 235 g casein, 201 g saccharose, 3.5 g L-cystine, 85 g starch, 116 g maltodextrin, 60 g cellulose, 12 g vitamins mix (AIN-93M, UPAE, Jouy-en-Josas, France), 51.5 g mineral mix (AIN-93Vx, UPAE, Jouy-en-Josas, France), and 236 g lard. Then, either OEA or KDS 5104 was added to the diet at a concentration of 100 mg/kg/body weight. The mice were kept under treatment for 5 weeks.
(§5) Sampling. At the end of the experimental period, mice were sacrificed by blood drawing (cardiac puncture) after anesthesia with isoflurane. Plasma was obtained by centrifugation (1,000 g for 10 min at 4° C.). Mesenteric, epididymal, inguinal and peritoneal adipose depots, as well as liver, stomach, small intestine mucosa, pancreas, and gastrocnemian muscle were removed and frozen into liquid nitrogen. Plasma, urine, feces, and organ samples were kept at −80° C. until analysis.
(§6) RNA extraction and gene expression. Total RNA from liver, intestine mucous membrane, adipose tissues, gastrocnemian muscle, pancreas and stomach were extracted with TRIzol reagent (Invitrogen, Carlsbad, USA) according to the manufacturer's instruction. The RNA concentration was determined on nanodrop from the absorbance at 260 nm. Retro-transcription PCRs to synthesize cDNA were performed using an Applied Biosystem Thermal Cycler 2720 and Superscript II (Invitrogen, Carlsbad, USA) according to manufacturer's protocol. Real-time quantitative PCR (RT-qPCR) were performed on cDNA obtained as described above using a high through put system (Biomek 3000, Beckman & Coulter, Fullerton, USA) and a Lightcycler 480 (Roche/Hitachi, Basel, Switzerland) with SYBR Green Master mix+kit (Eurogentec, Philadelphia, USA). Primers for the selected genes were generated using online informatics assistance from the Lightcycler manufacturer (Roche). Databases used to identify the genes were (1) the NCBI database (GenBank) and (2) the IHOP (Information Hyperlinked over Protein) database (www.ihop-net.org/UniPub/iHOP/bng/). Values were expressed as ratio of RNA levels relative to control mice (diets with 0 mg of OEA/kg/body weight) using ΔΔ(Ct) (Livak K J & Schmittgen T D, 2001, Methods 25:402-8). Gene expression of the following genes was measured (abbreviation and GenBank Accession shown in parentheses).
(§7) Statistical analysis. […] Statistical analysis of physiological parameters and gene expression data was performed by one-way ANOVA on Statview software (SAS Institute, Cary, USA). Daily food intake was analyzed using two-way ANOVA on Statview software. Statistical significance was set up at the P<0.05 level, the P<0.01 level and the P<0.001 level. For statistical analysis of the gene expression data, values were calculated relative to 18S expression for each mouse and gene.

[3] = test system: CPT1; assay: Real-time PCR gene expression in peripheral tissues: CPT1; conditions: C57bl6j mice, high fat diet, 100 mg/kg/body weight in diet, 5 weeks
Protocol: as §1, §4, §5, §6, §7

[4] = test system: Protein convertase subtilisin/kexin type 9 (PCSK 9); assay: Real-time PCR gene expression in peripheral tissues: PCSK9; conditions: liver; C57bl6j mice, high fat diet, 100 mg/kg/body weight in diet, 5 weeks
Protocol: as §1, §2, §3

[5] = test system: Visfatin; assay: Real-time PCR gene expression in peripheral tissues: visfatin; conditions: C57bl6j mice, high fat diet, 100 mg/kg/body weight in diet, 5 weeks
Protocol: as §1, §4, §5
(§8) RNA extraction and gene expression. Total RNA from liver, intestine mucous membrane, adipose tissues, gastrocnemian muscle, pancreas and stomach were extracted with TRIzol reagent (Invitrogen, Carlsbad, USA) according to the manufacturer's instruction. The RNA concentration was determined on nanodrop from the absorbance at 260 nm. […] Real-time quantitative PCR (RT-qPCR) were performed on cDNA obtained as described above using a high through put system (Biomek 3000, Beckman & Coulter, Fullerton, USA) and a Lightcycler 480 (Roche/Hitachi, Basel, Switzerland) with SYBR Green Master mix+kit (Eurogentec, Philadelphia, USA). […] Values were expressed as ratio of RNA levels relative to control mice (diets with 0 mg of OEA/kg/body weight) using ΔΔ(Ct) (Livak K J & Schmittgen T D, 2001, Methods 25:402-8). Gene expression of the following genes was measured (abbreviation and GenBank Accession shown in parentheses).
(§9) Statistical analysis. […] Daily food intake was analyzed using two-way ANOVA on Statview software. […] For statistical analysis of the gene expression data, values were calculated relative to 18S expression for each mouse and gene.

[6] = test system: Sterol regulatory element binding protein-C 2 (SREBP2 1); assay: Real-time PCR gene expression in peripheral tissues: SREBP2; conditions: liver; C57bl6j mice, high fat diet, 100 mg/kg/body weight in diet, 5 weeks
Protocol: as §1, §2, §3

[7] = test system: Fatty acid amide hydrolase (FAAH); assay: Real-time PCR gene expression in peripheral tissues: FAAH; conditions: C57bl6j mice, high fat diet, 100 mg/kg/body weight in diet, 5 weeks
Protocol: as §1, §4, §5, §6, §7

[8] = test system: Uncoupling protein 2 (UCP2); assay: Real-time PCR gene expression in peripheral tissues: UCP2; conditions: muscle; C57bl6j mice, high fat diet, 100 mg/kg/body weight in diet, 5 weeks
Protocol: as §1, §2, §3

[9] = test system: Adiponectin; assay: Real-time PCR gene expression in peripheral tissues: adiponectin; conditions: C57bl6j mice, high fat diet, 100 mg/kg/body weight in diet, 5 weeks
Protocol: as §1, §4, §5, §8, §9

[10] = test system: Fatty Acid Synthase (FAS 1); assay: Real-time PCR gene expression in peripheral tissues: FAS; conditions: liver; C57bl6j mice, high fat diet, 100 mg/kg/body weight in diet, 5 weeks
Protocol: as §1, §2, §3

[11] = test system: Cholescystokinin (CCK); assay: Real-time PCR gene expression in peripheral tissues: CCK; conditions: proximal intestine; C57bl6j mice, high fat diet, 100 mg/kg/body weight in diet, 5 weeks
Protocol: as §1, §2, §3

[12] = test system: Glucose transporter 4 (Glut 4); assay: Real-time PCR gene expression in peripheral tissues: Glut 4; conditions: muscle; C57bl6j mice, high fat diet, 100 mg/kg/body weight in diet, 5 weeks
Protocol: as §1, §2, §3

[13] = test system: AcylCoA oxidase (ACO); assay: Real-time PCR gene expression in peripheral tissues: ACO; conditions: liver; C57bl6j mice, high fat diet, 100 mg/kg/body weight in diet, 5 weeks
Protocol: as §1, §2, §3

[14] = test system: N-acylsphingosine amidohydrolase-like (NAAA); assay: Real-time PCR gene expression in peripheral tissues: NAAA; conditions: C57bl6j mice, high fat diet, 100 mg/kg/body weight in diet, 5 weeks
Protocol: as §1, §4, §5, §6, §7

CCCCCCCC/C=C\CCCCCCCC(=O)N[C@H](C)CO [KDS 5104, (Z)—(R)-9-octadecenamide, N-(2-hydroxyethyl, 1-methyl)]
PPAR α i, ratio of RNA levels relative to control mice [1]: 1.02
Fiaf at ep, ratio of RNA levels relative to control mice ([2]; epidydimal adipose tissue): 0.46
Fiaf at per, ratio of RNA levels relative to control mice ([2]; peritoneal adipose tissue): 2.79
Fiaf i, ratio of RNA levels relative to control mice ([2]; proximal intestine): 0.68
CPT1 l, ratio of RNA levels relative to control mice ([3]; liver): 1.06
CPT1 p, ratio of RNA levels relative to control mice ([3]; pancreas): 1.80
CPT1 i, ratio of RNA levels relative to control mice ([3]; proximal intestine): 1.63
PCSK9 l, ratio of RNA levels relative to control mice [4]: 1.34
visfatin at ep, ratio of RNA levels relative to control mice ([5]; epidydimal adipose tissue): −1.08
visfatin at per, ratio of RNA levels relative to control mice ([5]; peritoneal adipose tissue): −1.10
SREBP2 l, ratio of RNA levels relative to control mice [6]: 1.13
FAAH at ep, ratio of RNA levels relative to control mice ([7]; epidydimal adipose tissue): 9.71
FAAH at per, ratio of RNA levels relative to control mice ([7]; peritoneal adipose tissue): 3.82
FAAH i, ratio of RNA levels relative to control mice ([7]; proximal intestine): 1.28
UCP2 m, ratio of RNA levels relative to control mice [8]: 1.11
adiponectin at ep, ratio of RNA levels relative to control mice ([9]; epidydimal adipose tissue): −1.02
adiponectin at per, ratio of RNA levels relative to control mice ([9]; peritoneal adipose tissue): −1.52
FAS l, ratio of RNA levels relative to control mice [10]: 2.47
CCK i, ratio of RNA levels relative to control mice [11]: 1.62
Glut 4 m, ratio of RNA levels relative to control mice [12]: 5.70
ACO l, ratio of RNA levels relative to control mice [13]: 1.15
NAAA at ep, ratio of RNA levels relative to control mice ([14]; epidydimal adipose tissue): 1.38
NAAA at per, ratio of RNA levels relative to control mice ([14]; peritoneal adipose tissue): 1.52

From patent publication US8742082B2, “Compositions and methods for influencing satiety, lipid metabolism, and fat utilization” (Nestec S.A., priority 2008, dated 2014)
